Measured values reported in patent EP4692091A1, “CA[…], AND PHARMACEUTICAL COMPOSITION, PREPARATION METHOD THEREFOR AND USE THEREOF” (Changchun Genescience Pharmaceutical Co., Ltd., priority 2023, dated 2024).

Key:
Type in all cases: cell-based
NCI-N87 = experiment: Inhibition of proliferation of NCI-N87 cells by test compounds (CellTiter-Glo, 72 h); settings: NCI-N87, 72 h incubation
Protocol: 3: Test method (1) Cell plating: first, tumor cells NCI-N87 were cultured using a corresponding culture medium, trypsinized, centrifuged, resuspended for counting, adjusted to an appropriate concentration, and then plated on a 384-well plate. (2) Co-incubation of the compounds and tumor cells: after the cells adhered to the wall, 100 nL of a diluted bioactive substance (test compound) was added to the cell culture plate using ECHO, the final concentration of DMSO in wells of the cell plate was 0.33%, and the incubation was performed in an incubator at 37°C with […] for 72 h. (3) After the incubation was complete, 30 µL of a CTG reagent (CelltiterGlo kit) was added to each well. The culture was oscillated on a fast oscillator for 2 min, centrifuged at 1,000 rpm for 1 min, and kept away from light at room temperature for 30 min. The chemiluminescence signal value was read using an Envision instrument. (4) Cell viability detection: IC50 was calculated using GraphPad Prism 8 software, and the IC50 of the compounds was obtained using the following nonlinear fitting formula (see Table 3) : 11. Y=Bottom+(Top-Bottom)/(1+10^((LogIC50-X)*HillSlope)) 12. […] Table 3 Antiproliferative activity of test compounds on cells NCI-N87

SK-BR-3 = experiment: Inhibition of proliferation of SK-BR-3 cells by compounds (CellTiter-Glo, 72 h); settings: SK-BR-3, 72 h incubation
Protocol: 3: Test method (1) Cell plating: first, tumor cells SK-BR-3 were cultured using a corresponding culture medium, trypsinized, centrifuged, resuspended for counting, adjusted to an appropriate concentration, and then plated on a 384-well plate. (2) Co-incubation of the compounds and tumor cells: after the cells adhered to the wall, 100 nL of a diluted bioactive substance (test compound) was added to the cell culture plate using ECHO, the final concentration of DMSO in wells of the cell plate was 0.33%, and the incubation was performed in an incubator at 37°C with 5% CO2 for 72 h. (3) After the incubation was complete, 30 µL of a CTG reagent (CelltiterGlo kit) was added to each well. The culture was oscillated on a fast oscillator for 2 min, centrifuged at 1,000 rpm for 1 min, and kept away from light at room temperature for 30 min. The chemiluminescence signal value was read using an Envision instrument. (4) Cell viability detection: IC50 was calculated using GraphPad Prism 8 software, and the IC50 of the compounds was obtained using the following nonlinear fitting formula (see Table 1) : 1. Y=Bottom+(Top-Bottom)/(1+10^((LogIC50-X)*HillSlope)) 2. […] Table 1 Antiproliferative activity of test compounds on SK-BR-3

MDA-MB-468 = experiment: Inhibition of proliferation of MDA-MB-468 cells by test compounds (CellTiter-Glo, 72 h); settings: MDA-MB-468, 72 h incubation
Protocol: 3: Test method • (1) Cell plating: first, tumor cells MDA-MB-468 were cultured using a corresponding culture medium, trypsinized, centrifuged, resuspended for counting, adjusted to an appropriate concentration, and then plated on a 384-well plate. • (2) Co-incubation of the compounds and tumor cells: after the cells adhered to the wall, 100 nL of a diluted bioactive substance (test compound) was added to the cell culture plate using ECHO, the final concentration of DMSO in wells of the cell plate was 0.33%, and the incubation was performed in an incubator at 37°C with […] for 72 h. • (3) After the incubation was complete, 30 µL of a CTG reagent (CelltiterGlo kit) was added to each well. The culture was oscillated on a fast oscillator for 2 min, centrifuged at 1,000 rpm for 1 min, and kept away from light at room temperature for 30 min. The chemiluminescence signal value was read using an Envision instrument. • (4) Cell viability detection: IC50 was calculated using GraphPad Prism 8 software, and the IC50 of the compounds was obtained using the following nonlinear fitting formula (see Table 2): • 6. Y=Bottom+(Top-Bottom)/(1+10^((LogIC50-X)*HillSlope)) • 7. […] Table 2 Antiproliferative activity of test compounds on MDA-MB-468

Molecule	IC50 (NCI-N87; Homo sapiens, NCI-N87, 72 h)	IC50 (SK-BR-3; Homo sapiens, SK-BR-3, 72 h)	IC50 (MDA-MB-468; Homo sapiens, MDA-MB-468, 72 h)	IC50 (NCI-N87)	IC50 (SK-BR-3)	IC50 (MDA-MB-468)
CC[C@@]1(O)C(=O)OCc2c1cc1n(c2=O)Cc2c-1nc1cc(F)c(C3CC3)c3c1c2C(NC(=O)C[C@@H](C)O)CC3 (single isomer, unassigned) [17-1]	3.6 nM	4.6 nM	5.8 nM			
CC[C@@]1(O)C(=O)OCc2c1cc1n(c2=O)Cc2c-1nc1cc(F)c(C3CC3)c3c1c2C(NC(=O)[C@H]1C[C@@H](O)C1)CC3 (single isomer, unassigned) [18-2]	16.5 nM	9.6 nM	12 nM			
CC[C@@]1(O)C(=O)OCc2c1cc1n(c2=O)Cc2c-1nc1cc(F)c(C3CC3)c3c1c2C(NC(=O)C[C@@H](C)O)CCC3 (single isomer, unassigned) [19-1]	7.4 nM	8.3 nM	7.1 nM			
CC[C@@]1(O)C(=O)OCc2c1cc1n(c2=O)Cc2c-1nc1cc(F)c(C3CC3)c3c1c2C(NC(=O)C[C@@H](C)O)CCC3 (single isomer, unassigned) [19-2]				7.4 nM	7.6 nM	6.9 nM
CC[C@@]1(O)C(=O)OCc2c1cc1n(c2=O)Cc2c-1nc1cc(F)c(C3CC3)c3c1c2C(NC(=O)[C@H]1C[C@@H](O)C1)CCC3 (single isomer, unassigned) [20-1]	26 nM	21 nM	15.6 nM			
CC[C@@]1(O)C(=O)OCc2c1cc1n(c2=O)Cc2c-1nc1cc(F)c(C3CC3)c3c1c2C(NC(=O)[C@H]1C[C@@H](O)C1)CCC3 (single isomer, unassigned) [20-2]				28 nM	25 nM	19.5 nM
CC[C@@]1(O)C(=O)OCc2c1cc1n(c2=O)Cc2c-1nc1cc(F)c(C)c3c1c2C(NC(=O)[C@H]1C[C@@H](O)C1)CCO3 (single isomer, unassigned) [25-1]				110 nM	80 nM	69 nM
CC[C@@]1(O)C(=O)OCc2c1cc1n(c2=O)Cc2c-1nc1cc(F)c(C)c3c1c2C(NC(=O)[C@H]1C[C@@H](O)C1)CCO3 (single isomer, unassigned) [25-2]				40 nM	19 nM	18 nM
CC[C@@]1(O)C(=O)OCc2c1cc1n(c2=O)Cc2c-1nc1cc(F)c(Br)c3c1c2C(NC(=O)C[C@@H](C)O)CC3 (stereo partly drawn) [3-1, (R)-N-((1S,9S)-4-bromo-9-ethyl-5-fluoro-9-hydroxy-10,13-dioxo-2,3,9,10,13,15-hexahydro-1H,12H-benzo[de]pyrano[3',4',6,7]indolizino[1,2-b]quinolin-1-yl)-3-hydroxybutanamide]				16 nM	13 nM	7.5 nM
CC[C@@]1(O)C(=O)OCc2c1cc1n(c2=O)Cc2c-1nc1cc(F)c(Br)c3c1c2C(NC(=O)C[C@@H](C)O)CC3 (stereo partly drawn) [3-2, (R)-N-((1R,9S)-4-bromo-9-ethyl-5-fluoro-9-hydroxy-10,13-dioxo-2,3,9,10,13,15-hexahydro-1H,12H-benzo[de]pyrano[3',4',6,7]indolizino[1,2-b]quinolin-1-yl)-3-hydroxybutanamide]				16 nM	15 nM	12 nM
CC[C@@]1(O)C(=O)OCc2c1cc1n(c2=O)Cc2c-1nc1cc(F)cc3c1c2C(NC(=O)C[C@@H](C)O)CC3 (stereo partly drawn) [4-1, (R)-N-((1S,9S)-9-ethyl-5-fluoro-9-hydroxy-10,13-dioxo-2,3,9,10,13,15-hexahydro-1H,12H-benzo[de]pyrano[3',4',6,7]indolizino[1,2-b]quinolin-1-yl)-3-hydroxybutanamide]					61 nM	34 nM
CC[C@@]1(O)C(=O)OCc2c1cc1n(c2=O)Cc2c-1nc1cc(F)cc3c1c2C(NC(=O)C[C@@H](C)O)CC3 (stereo partly drawn) [4-2, (R)-N-((1R,9S)-9-ethyl-5-fluoro-9-hydroxy-10,13-dioxo-2,3,9,10,13,15-hexahydro-1H,12H-benzo[de]pyrano[3',4',6,7]indolizino[1,2-b]quinolin-1-yl)-3-hydroxybutanamide]				22 nM	14 nM	13 nM
CC[C@@]1(O)C(=O)OCc2c1cc1n(c2=O)Cc2c-1nc1cc(F)c(OC(F)F)c3c1c2C(NC(=O)C[C@@H](C)O)CC3 (stereo partly drawn) [5-1, (R)-N-((1S,9S)-4-(difluoromethoxy)-9-ethyl-5-fluoro-9-hydroxy-10,13-dioxo-2,3,9,10,13,15-hexahydro-1H,12H-benzo[de]pyrano[3',4',6,7]indolizino[1,2-b]quinolin-1-yl)-3-hydroxybutanamide]				14 nM	20 nM	6.7 nM
CC[C@@]1(O)C(=O)OCc2c1cc1n(c2=O)Cc2c-1nc1cc(F)c(OC(F)F)c3c1c2C(NC(=O)C[C@@H](C)O)CC3 (stereo partly drawn) [5-2, (R)-N-((1R,9S)-4-(difluoromethoxy)-9-ethyl-5-fluoro-9-hydroxy-10,13-dioxo-2,3,9,10,13,15-hexahydro-1H,12H-benzo[de]pyrano[3',4',6,7]indolizino[1,2-b]quinolin-1-yl)-3-hydroxybutanamide]				18 nM	20 nM	9.4 nM
CC[C@@]1(O)C(=O)OCc2c1cc1n(c2=O)Cc2c-1nc1cc(F)c(C)c3c1c2C(NC(=O)C[C@@H](C)O)CCC3 (stereo partly drawn) [6-1, (R)-N-((1S,10S)-10-ethyl-6-fluoro-10-hydroxy-5-methyl-11,14-dioxo-1,2,3,4,10,11,14,16-octahydro-13H-cyclohepta[3',4',6,7]indolizino[1,2-b]quinolin-1-yl)-3-hydroxybutanamide]				7.5 nM	11 nM	8.8 nM
C=Cc1c(F)cc2nc3c(c4c2c1CCC4NC(=O)C[C@@H](C)O)Cn1c-3cc2c(c1=O)COC(=O)[C@]2(O)CC (stereo partly drawn) [7-1, (R)-N-((1S,9S)-9-ethyl-5-fluoro-9-hydroxy-10,13-dioxo-4-vinyl-2,3,9,10,13,15-hexahydro-1H,12H-benzo[de]pyrano[3',4',6,7]indolizino[1,2-b]quinolin-1-yl)-3-hydroxybutanamide]					8.6 nM	3.1 nM
CC[C@@]1(O)C(=O)OCc2c1cc1n(c2=O)Cc2c-1nc1cc(F)c(OCC(F)(F)F)c3c1c2C(NC(=O)C[C@@H](C)O)CC3 (stereo partly drawn) [8-2, (R)-N-((1R,9S)-9-ethyl-5-fluoro-9-hydroxy-10,13-dioxo-4-(2,2,2-trifluoroethoxy)-2,3,9,10,13,15-hexahydro-1H,12H-benzo[de]pyrano[3',4',6,7]indolizino[1,2-b]quinolin-1-yl)-3-hydroxybutanamide]					87 nM	38 nM
CC[C@@]1(O)C(=O)OCc2c1cc1n(c2=O)Cc2c-1nc1cc(F)c(C3CC3)c3c1c2C(NC(=O)[C@H]1C[C@@H](O)C1)CC3 (stereo partly drawn) [18-1, (1S,3S)-N-((1R,9S)-4-cyclopropyl-9-ethyl-5-fluoro-9-hydroxy-10,13-dioxo-2,3,9,10,13,15-hexahydro-1H,12H-benzo[d]pyrano[3',4':6,7]indolizino[1,2-b]quinolin-1-yl)-3-hydroxycyclobutane-1-carboxamide]						12 nM
CC[C@@]1(O)C(=O)OCc2c1cc1n(c2=O)Cc2c-1nc1ccc(O)c3c1c2CCC3 [compound 9, (S)-9-ethyl-4,9-dihydroxy-1,2,3,9,12,15-hexahydro-10H,13H-benzopyrano[3',4',6,7]indolizino[1,2-b]quinoline-10,13-dione]	3 nM					
(R)-3-cyclopropyl-N-((1S,9S)-4-cyclopropyl-9-ethyl-5-fluoro-9-hydroxy-10,13-dioxo-2,3,9,10,13,15-hexahydro-1H,12H-benzo[d]pyrano[3',4':6,7]indolizino[1,2-b]quinolin-1-yl)-3-hydroxypropanamide [34-2]				6 nM		4 nM
